Patent US20240368139A1, “NOVEL MODULATORS OF EHMT1 AND EHMT2 AND THERAPEUTIC USE THEREOF” (Tango Therapeutics, Inc., priority 2021, published 2024)

Tests used:
[1] = molecular target: T1, human EHMT2 913-1193 (Homo sapiens, UniProt Q96KQ7); assay: EHMT2 enzyme assay on histone peptide substrate (3H-SAM SPA); details: EHMT2 IC50, recombinant human EHMT2 913-1193, histone peptide substrate
T1 sequence (Q96KQ7 913-1193): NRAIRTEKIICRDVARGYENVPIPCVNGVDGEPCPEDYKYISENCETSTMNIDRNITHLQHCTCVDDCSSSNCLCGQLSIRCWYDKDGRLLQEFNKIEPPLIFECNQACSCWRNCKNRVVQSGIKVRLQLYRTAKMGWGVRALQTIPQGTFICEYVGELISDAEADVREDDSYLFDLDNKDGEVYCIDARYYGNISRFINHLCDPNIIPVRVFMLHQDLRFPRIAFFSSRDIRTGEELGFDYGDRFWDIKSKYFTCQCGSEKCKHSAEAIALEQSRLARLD

[2] = test system: H3K9me2 in HCT116 cells; assay: HCT116 H3K9me2 in-cell western assay; format: cell-based; details: Homo sapiens, HCT-116, 72 h, HCT116 cells, 72 hours incubation; read-out: H3K9me2 ICW IC50
Description: HCT116 cell line was purchased from ATCC (Manassas, VA, USA). […] Penicillin-Streptomycin and heat inactivated fetal bovine serum were purchased from Hyclone (Logan, UT, USA). DPBS, Corning^R were purchased from VWR (Radnor, PA, USA). Triton′ X-100 was purchased from Sigma (St. Louis, MO, USA). Intercept blocking buffer, DRAQ5, Licor Odyssey Infrared Scanner were purchased from Licor Biosciences (Lincoln, NB, USA). Plate washer was purchased from BioTek (Winooski, VT, USA). […] 16% Paraformaldehyde was purchased from Electron Microscopy Sciences (Hatfield, PA, USA). HCT116 cells were maintained in complete growth medium (RPMI supplemented with 10% heat inactivated fetal bovine serum, 1% Penicillin-Streptomycin) and cultured at 37° C. under 5% CO2. N^2-(4-methoxy-3-(3-(pyrrolidin-1-yl)propoxy)phenyl)-N^4,6-dimethyl]pyrimidine-2,4-diamine (synthesis disclosed in International Application WO2017181177A1) was used as a control compound.
HCT116 cells (ATCC) were trypsinized, counted and seeded in assay medium (RPMI supplemented with 10% heat inactivated fetal bovine serum, 1% Penicillin-Streptomycin) at a concentration of 2,000 cells per well to a 384-well cell culture plate with compounds in 50 μl per well. Plates were incubated with at 37° C. under 5% CO2 for 72 hours. After the incubation, 50 μl per well of 8% paraformaldehyde in PBS was added to the plates and incubated at room temperature for 20 minutes. Plates were transferred to a BioTek (EL406) plate washer and washed 5 times with 110 μl per well of wash buffer (1×PBS containing 0.1% Triton X-100). The plates were next blocked with 50 μl of Intercept blocking buffer for 1 hour at room temperature. Blocking buffer was removed and 30 μl per well of monoclonal primary antibody of H3K9me2 (CST) diluted 1:200 in Intercept blocking buffer were added and plates were incubated overnight at 4° C. The plates were then washed 5 times with 110 μl per well of wash buffer (1×PBS containing 0.1% Triton X-100). Next 30 μl per well of secondary was added (1:400 800 CW goat anti-rabbit IgG in blocking buffer) with 1:1000 DRAQ5 in blocking buffer and incubated for 2 hours at room temperature. The plates were washed 5 times with 110 μl per well of wash buffer (1×PBS containing 0.1% Triton X-100) then with 100 μl per well of water once. Plates were allowed to dry at room temperature then imaged on a Licor Odyssey Infrared Scanner which measured integrated intensity at 700 nm and 800 nm wavelength. Both 700 and 800 channels were scanned.
The average of the ratio values (800 nm/700 nm) for each well was calculated and used to determine the percentage for each test well in the plate. Compounds were serially diluted two-fold in 0.1% DMSO for a total of 10 test concentrations beginning at 10 μM. IC50 curves were generated using duplicate wells per concentration of compound. […] IC50 values were calculated using a non-linear regression of Prism.

[3] = molecular target: T2, human EHMT1 982-1266 (Homo sapiens, UniProt Q9H9B1); assay: EHMT1 enzyme assay on histone peptide substrate (3H-SAM SPA); details: EHMT1 IC50, recombinant human EHMT1 982-1266, histone peptide substrate
T2 sequence (Q9H9B1 982-1266): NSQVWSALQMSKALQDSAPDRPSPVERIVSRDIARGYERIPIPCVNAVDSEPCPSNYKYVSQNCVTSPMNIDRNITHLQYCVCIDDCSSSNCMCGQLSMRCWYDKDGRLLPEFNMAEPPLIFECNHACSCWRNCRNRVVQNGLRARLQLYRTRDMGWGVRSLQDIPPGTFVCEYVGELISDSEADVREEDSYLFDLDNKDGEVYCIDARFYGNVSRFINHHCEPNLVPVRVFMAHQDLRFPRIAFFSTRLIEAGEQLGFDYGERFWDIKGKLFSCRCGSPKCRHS

Row | SMILES | IC50 [1] [nM] | IC50 [2] [nM] | IC50 [3] [nM]
1 | CNc1nc(Nc2cc(OCCCN3CCCC3)c3occc3c2)nc(C)c1F [Compound 109, 5-fluoro-N4,6-dimethyl-N2-[7-(3-pyrrolidin-1-ylpropoxy)benzofuran-5-yl]pyrimidine-2,4-diamine] | > 2000 | > 2000 | > 2000
2 | CNc1cc(C)nc(Nc2cc3c(c(OCCN4CCCC4)c2)OCC3)n1 [Compound 112, N4,6-dimethyl-N2-[7-(2-pyrrolidin-1-ylethoxy)-2,3-dihydrobenzofuran-5-yl]pyrimidine-2,4-diamine] | > 2000 | 500 to 2000 | 100 to 500
3 | CNc1cc(C)nc(Nc2cc3c(c(OCCCN4CCCC4)c2)OCC(=O)N3)n1 [Compound 114] | > 2000 | > 2000 | > 2000
4 | Cc1cc(N)nc(Nc2cc3c(c(OCCCN4CCCC4)c2)OCC3)n1 [Compound 115, 6-methyl-N2-[7-(3-pyrrolidin-1-ylpropoxy)-2,3-dihydrobenzofuran-5-yl]pyrimidine-2,4-diamine] | > 2000 | 500 to 2000 | > 2000
5 | Cc1cc(NC2CCCC2)nc(Nc2cc3c(c(OCCCN4CCCC4)c2)OCC3)n1 [Compound 116, N4-cyclopentyl-6-methyl-N2-[7-(3-pyrrolidin-1-ylpropoxy)-2,3-dihydrobenzofuran-5-yl]pyrimidine-2,4-diamine] | > 2000 | > 2000 | 500 to 2000
6 | Cc1cc(NC2CCCCC2)nc(Nc2cc3c(c(OCCCN4CCCC4)c2)OCC3)n1 [Compound 117, N4-cyclohexyl-6-methyl-N2-[7-(3-pyrrolidin-1-ylpropoxy)-2,3-dihydrobenzofuran-5-yl]pyrimidine-2,4-diamine] | > 2000 | > 2000 | 500 to 2000
7 | Cc1cc(NC2CCC2)nc(Nc2cc3c(c(OCCCN4CCCC4)c2)OCC3)n1 [Compound 119, N4-cyclobutyl-6-methyl-N2-[7-(3-pyrrolidin-1-ylpropoxy)-2,3-dihydrobenzofuran-5-yl]pyrimidine-2,4-diamine] | > 2000 | 500 to 2000 | 500 to 2000
8 | CNc1cc(C)nc(Nc2cc(OCCCN3CCCC3)c3oc(=O)[nH]c3c2)n1 [Compound 124, 5-[[4-methyl-6-(methylamino)pyrimidin-2-yl]amino]-7-(3-pyrrolidin-1-ylpropoxy)-3H-1,3-benzoxazol-2-one] | > 2000 | > 2000 | 100 to 500
9 | CNc1cc(C)nc(Nc2cc3c(c(N4CCCNCC4)c2)OCC3)n1 [Compound 125, N2-[7-(1,4-diazepan-1-yl)-2,3-dihydrobenzofuran-5-yl]-N4,6-dimethyl-pyrimidine-2,4-diamine] | 500 to 2000 | 500 to 2000 | 500 to 2000
10 | CNc1cc(C)nc(Nc2cc3c(c(N4CCCN(C)CC4)c2)OCC3)n1 [Compound 126, N4,6-dimethyl-N2-[7-(4-methyl-1,4-diazepan-1-yl)-2,3-dihydrobenzofuran-5-yl]pyrimidine-2,4-diamine] | 500 to 2000 | 500 to 2000 | 500 to 2000
11 | CNc1cc(C)nc(Nc2cc(OCCCN3CCCC3)c3c(c2)N(Cc2ccccc2)CCO3)n1 [Compound 127, N2-[4-benzyl-8-(3-pyrrolidin-1-ylpropoxy)-2,3-dihydro-1,4-benzoxazin-6-yl]-N4,6-dimethyl-pyrimidine-2,4-diamine] | 500 to 2000 | 500 to 2000 | 100 to 500
12 | CNc1cc(C)nc(Nc2cc3c(c(N4C[C@H]5CNC[C@H]5C4)c2)OCC3)n1 [Compound 128, N4,6-dimethyl-N2-[7-[rac-(3aS,6aR)-2,3,3a,4,6,6a-hexahydro-1H-pyrrolo[3,4-c]pyrrol-5-yl]-2,3-dihydrobenzofuran-5-yl]pyrimidine-2,4-diamine] | > 2000 | 500 to 2000 | 500 to 2000
13 | CNc1cc(C)nc(Nc2cc3c(c(OCCCN4CCCC4)c2)OCCN3)n1 [Compound 136] | > 2000 | 500 to 2000 | 100 to 500
14 | CNc1cc(C)nc(Nc2cc3c(c(C4=CCN(C)CCC4)c2)OCO3)n1 [Compound 141, N4,6-dimethyl-N2-[7-(1-methyl-2,3,4,7-tetrahydroazepin-5-yl)-1,3-benzodioxol-5-yl]pyrimidine-2,4-diamine] | 100 to 500 | < 100 | < 100
15 | CNc1cc(C)nc(Nc2cc3c(c(N4CCNCC4)c2)OCC3)n1 [Compound 152] | > 2000 | > 2000 | > 2000
16 | CNc1cc(C)nc(Nc2cc3c(c(C4=CCNCC4)c2)OCC3)n1 [Compound 155, N4,6-dimethyl-N2-[7-(1,2,3,6-tetrahydropyridin-4-yl)-2,3-dihydrobenzofuran-5-yl]pyrimidine-2,4-diamine] | 500 to 2000 | 100 to 500 | 100 to 500

Next, values leading:

Row | IC50 [1] [nM] | IC50 [2] [nM] | IC50 [3] [nM] | SMILES
17 | > 2000 | 100 to 500 | 500 to 2000 | CNc1cc(C)nc(Nc2cc3c(c(C4=CCN(CCOC)CCC4)c2)OCO3)n1 [Compound 145, N2-[7-[1-(2-methoxyethyl)-2,3,4,7-tetrahydroazepin-5-yl]-1,3-benzodioxol-5-yl]-N4,6-dimethyl-pyrimidine-2,4-diamine]
18 | 500 to 2000 | 100 to 500 | 100 to 500 | CNc1cc(C)nc(Nc2cc3c(c(C4=CCN(C)CCC4)c2)OCCO3)c1 [Compound 146, N4,6-dimethyl-N2-[5-(1-methyl-2,3,4,7-tetrahydroazepin-5-yl)-2,3-dihydro-1,4-benzodioxin-7-yl]pyridine-2,4-diamine]
19 | > 2000 | 500 to 2000 | 500 to 2000 | CNc1cc(C)nc(Nc2cc(OCCCN3CCCC3)c3c(c2)OCO3)c1 [Compound 147, N4,6-dimethyl-N2-[7-(3-pyrrolidin-1-ylpropoxy)-1,3-benzodioxol-5-yl]pyridine-2,4-diamine]
20 | > 2000 | 500 to 2000 | 500 to 2000 | CNc1cc(C)nc(Nc2cc3c(c(C4=CCC(N)CC4)c2)OCC3)n1 (stereo not drawn) [Compound 148, N2-[7-(4-aminocyclohexen-1-yl)-2,3-dihydrobenzofuran-5-yl]-N4,6-dimethyl-pyrimidine-2,4-diamine]
21 | > 2000 | > 2000 | > 2000 | CNc1cc(C)nc(Nc2cc3c(c(C4CCNCC4)c2)OCC3)n1 [Compound 149, N4,6-dimethyl-N2-[7-(4-piperidyl)-2,3-dihydrobenzofuran-5-yl]pyrimidine-2,4-diamine]
22 | > 2000 | > 2000 | > 2000 | CNc1cc(C)nc(Nc2cc3c(c([C@H]4CC[C@H](N)CC4)c2)OCC3)n1 [Compound 153, N2-[7-(4-aminocyclohexyl)-2,3-dihydrobenzofuran-5-yl]-N4,6-dimethyl-pyrimidine-2,4-diamine]
23 | 500 to 2000 | 100 to 500 | < 100 | CNc1cc(C)nc(Nc2cc(OCCCN3CCCC3)c3c(c2)OC(F)(F)O3)n1 [Compound 154, N2-[2,2-difluoro-7-(3-pyrrolidin-1-ylpropoxy)-1,3-benzodioxol-5-yl]-N4,6-dimethyl-pyrimidine-2,4-diamine]
